Experimental data reported in the supplement of paper PMC8967900.

Tests used:
Assay in all cases: selective drug sensitivity score (sDSS, relative to normal bone marrow) (sDSS (score)); higher = more potent and effective on the cell line relative to normal bone marrow cells
Settings in all cases: 72 h
[1] = system: COG-LL-355h
[2] = system: MOLT-14
[3] = system: KARPAS-45
[4] = system: RPMI-8402
[5] = system: MOLT-4
[6] = system: RCH-ACV
[7] = system: NALM-16
[8] = system: CCRF-CEM
[9] = system: KASUMI-9
[10] = system: MOLT-16
[11] = system: TANOUE
[12] = system: 380
[13] = system: MHH-CALL-2
[14] = system: SUP-B15
[15] = system: MHH-CALL-3
[16] = system: LC4-1
[17] = system: COG-LL-317
[18] = system: ALL-SIL
[19] = system: 697
[20] = system: SEM cells
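Further: ALL cell lines in 384-well plates, five doses spanning 10,000-fold, each plate scaled between vehicle and 100 µmol/L benzalkonium chloride controls, sDSS an adapted area-under-curve metric.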

Row | Structure (SMILES) | selective drug sensitivity score [1] | selective drug sensitivity score [2] | selective drug sensitivity score [3] | selective drug sensitivity score [4] | selective drug sensitivity score [5] | selective drug sensitivity score [6] | selective drug sensitivity score [7] | selective drug sensitivity score [8] | selective drug sensitivity score [9] | selective drug sensitivity score [10] | selective drug sensitivity score [11] | selective drug sensitivity score [12] | selective drug sensitivity score [13] | selective drug sensitivity score [14] | selective drug sensitivity score [15] | selective drug sensitivity score [16] | selective drug sensitivity score [17] | selective drug sensitivity score [18] | selective drug sensitivity score [19] | selective drug sensitivity score [20]
1 | O=C(NCc1ccncc1)C12CC3CC(C1)CC(c1ccc(Cl)cc1)(C3)C2 (top concentration 50000 nM) | 0.48 | 1.38 | 3.28 | 2.68 | 1.98 | 4.08 | -0.72 | 2.28 | 4.28 | 1.58 | -0.72 | 0.38 | 4.38 | 0.18 | 2.78 | 0.18 | -0.12 | 2.08 | 3.78 | 3.88
2 | Cc1cc2c(F)c(Oc3ncnn4cc(OC[C@@H](C)O)c(C)c34)ccc2[nH]1 [Brivanib] (top concentration 1000 nM) | -0.04 | 0.26 | 0.06 | 0.46 | -0.04 | 1.96 | -0.04 | -0.04 | -0.04 | -0.04 | -0.04 | -0.04 | -0.04 | -0.04 | -0.04 | -0.04 | -0.04 | -0.04 | 0.66 | -0.04
3 | CN(C)C(=O)c1ccc(S(=O)(=O)c2ccc(NC(=O)[C@@](C)(O)C(F)(F)F)c(Cl)c2)cc1 [AZD7545] (top concentration 10000 nM) | -0.2 | 1 | 2.9 | 5.7 | 1.6 | 3 | 0.3 | 0 | -0.2 | 5.3 | 3.4 | -0.2 | -0.2 | 4.9 | 0.1 | 1.6 | 0.7 | 3.4 | 4.3 | 0.6
4 | C[C@H]1CN(C2COC2)CCN1c1ccc(Nc2cc(-c3ccnc(N4CCn5c(cc6c5CC(C)(C)C6)C4=O)c3CO)cn(C)c2=O)nc1 [GDC-0853] (top concentration 1000 nM) | 0 | 0 | 0 | 0 | 0 | 0 | 0 | 0 | 0 | 0 | 0 | 0 | 0 | 0 | 0 | 0 | 0 | 1.6 | 0 | 0
5 | CCCCCCCCCCCCCCCCCCOP(=O)([O-])OC1CC[N+](C)(C)CC1 [Perifosine] (top concentration 2500 nM) | 0.64 | -0.36 | -0.26 | -0.36 | -0.36 | 2.34 | -0.36 | -0.16 | -0.36 | -0.36 | -0.36 | -0.16 | -0.26 | 1.04 | -0.36 | 4.04 | -0.36 | -0.36 | -0.36 | -0.36
6 | CC(=O)O[C@H]1C(=O)[C@@]2(C)[C@H]([C@H](OC(=O)c3ccccc3)[C@]3(O)C[C@H](OC(=O)[C@H](O)[C@@H](NC(=O)c4ccccc4)c4ccccc4)C(C)=C1C3(C)C)[C@]1(OC(C)=O)CO[C@@H]1C[C@@H]2O [Paclitaxel] (top concentration 1000 nM) | 5.14 | 19 | 18.3 | 16 | 19.3 | 21.8 | 14.1 | 18.3 | 19.6 | 21.7 | -10.8 | 19.9 | 17.3 | 21.1 | 5.24 | 23 | 19.6 | 20.8 | 22.4 | 21.3
7 | CC(O)(CS(=O)(=O)c1ccc(F)cc1)C(=O)Nc1ccc(C#N)c(C(F)(F)F)c1 (stereo not given) [Bicalutamide] (top concentration 10000 nM) | 2.62 | 2.52 | -0.88 | 1.02 | 2.32 | -1.68 | 0.62 | -0.38 | 0.52 | 6.92 | -1.28 | 1.72 | -1.68 | 4.62 | -1.68 | -1.68 | 0.52 | -1.68 | -0.68 | -1.68
8 | COc1cc(C)c(/C=C/C(C)=C/C=C/C(C)=C/C(=O)O)c(C)c1C [Acitretin] (top concentration 10000 nM) | 2.3 | -1.4 | 0.2 | -1.6 | -1.2 | -1.6 | -1.6 | -1 | 2.9 | -0.4 | -1.6 | 15.2 | -0.7 | -1.6 | -0.2 | -0.9 | -0.5 | -1.6 | 0.6 | 0.4
9 | C=CC[C@@H]1/C=C(\C)C[C@H](C)C[C@H](OC)[C@H]2O[C@@](O)(C(=O)C(=O)N3CCCC[C@H]3C(=O)O[C@H](/C(C)=C/[C@@H]3CC[C@@H](O)[C@H](OC)C3)[C@H](C)[C@@H](O)CC1=O)[C@H](C)C[C@@H]2OC [Tacrolimus] (top concentration 10000 nM) | 3.18 | 1.38 | 2.18 | 1.38 | 1.38 | 10.7 | 12.5 | 2.78 | 12.1 | 12.1 | -0.72 | 1.88 | 24.6 | 18.3 | 33.9 | 21.1 | 0.68 | 1.08 | 2.88 | 7.88
